Where two headings read alike, the source gives them in different places.
Experiments:
hens = details: cited from earlier work
Hy-line laying hens = assay: Monacolin K residue remained in eggs (HPLC); type: in vivo, hen; details: hens fed basal diet containing 0.056% monacolin K (highest red mold rice content) for 42 days, FIG. 3
Experimental: The method for determining whether there is any monacolin K residue remained comprised the following steps. 20 mL acetonitrile-water (9:1, v/v) is added into 10 grams of egg samples (including yolk samples and albumen samples which are separated from eggs laid by hens fed with red mold rice of the highest content for 42 days), vibrated for 60 min through ultrasonic vibration, stirred and mixed for 15 min. Then, after the solid is separated off through a Whatman No. 1 filter paper, equal volume of acetonitrile is added into a 4 mL egg sample, filtered via a filter membrane of 0.45 μm pore size, and analyzed thgrough HPLC. The operating conditions for performing HPLC analysis were described as above.

For CC[C@H](C)C(=O)O[C@H]1C[C@@H](C)C=C2C=C[C@H](C)[C@H](CC[C@@H]3C[C@@H](O)CC(=O)O3)[C@H]21 [lovastatin], the “Lowering of egg cholesterol concentration” value (“Lowering” for short) (hens; 0.0005% lovastatin, hens of 30 weeks old, feed for 12 weeks (Mori et al.)) is listed as 7.5%, the “Lowering” value (hens; 0.0015% lovastatin, hens of 30 weeks old, feed for 12 weeks (Mori et al.)) is listed as 12.7% and the “Decrease in egg cholesterol concentration” value (hens; 0.0035% lovastatin, hens of 69 weeks old, feed for 5 weeks (Luhman et al.)) is listed as “no significant decrease”. For the same compound, the “Lowering” value (hens; 0.03% lovastatin, hens of 18 weeks old, feed for 5 weeks (Elkin and Yan)) was 4%, the “Lowering” value (hens; 0.06% lovastatin, hens of 18 weeks old, feed for 5 weeks (Elkin and Yan)) was 7% and the “Decrease of egg cholesterol” value (hens; 0.2407% lovastatin in feed for 9 days (Elkin and Rogler)) was 13%. The “Monacolin K residue in eggs (yolk and egg white)” value (Hy-line laying hens) was “no monacolin K residue”.

Source: patent publication US7157107B2, “Method for producing eggs with low cholesterol level” (priority 2004, dated 2007)
